Measured values reported in ChEMBL document CHEMBL1201862, “PubChem BioAssay data set” (2004).
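Five compound concentrations were applied to cells in 96-well plates for 48 hours; endpoints were derived by simple linear interpolation of the resulting dose-response curve. GI50 marks 50% less growth.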 The source made the active and inactive calls. Rule as the data show it: active = GI50 up to about 1.1 µM and inactive = higher.

Legend:
Experiment in all cases: NCI-60 cell line screen, 48 h
[1] = tested on: A549
[2] = tested on: ACHN
[3] = tested on: EKVX
[4] = tested on: HCT-15
[5] = tested on: K562
[6] = tested on: MOLT-4
[7] = tested on: NCI-H23
[8] = tested on: OVCAR-5
[9] = tested on: OVCAR-8
[10] = tested on: SK-MEL-28
[11] = tested on: SK-OV-3
[12] = tested on: SW-620
[13] = tested on: U-251
[14] = tested on: UACC-257
[15] = tested on: RXF 393
[16] = tested on: SK-MEL-2

SMILES | GI50 [1] | GI50 [2] | GI50 [3] | GI50 [4] [µM] | GI50 [5] | GI50 [6] | GI50 [7] | GI50 [8] | GI50 [9] | GI50 [10] | GI50 [11] | GI50 [12] | GI50 [13] | GI50 [14] | GI50 [15] | GI50 [16]
O=C(CC(=O)Nc1ccccc1O)Nc1ccccc1O | 29.9 µM (inactive) | 9.86 µM (inactive) | > 100 µM (inactive) | 5.68 | 6.79 µM (inactive) | 5.62 µM (inactive) | 22.2 µM (inactive) | 59.4 µM (inactive) | 14.2 µM (inactive) | 13.8 µM (inactive) | > 100 µM (inactive) | 4.6 µM (inactive) | 23.9 µM (inactive) | 15.5 µM (inactive) | – | –
O=[N+]([O-])c1ccccc1C1N2CCCCC2[C@@H]2c3[nH]c4ccccc4c3CCN12 (some centres undefined) | 9.84 µM (inactive) | 12.4 µM (inactive) | 20.7 µM (inactive) | 10.9 | 3.57 µM (inactive) | 5.78 µM (inactive) | 14.4 µM (inactive) | 19.1 µM (inactive) | 16.8 µM (inactive) | 13.7 µM (inactive) | 17.9 µM (inactive) | 11.4 µM (inactive) | 15.6 µM (inactive) | 13.7 µM (inactive) | 12.6 µM (inactive) | 13.6 µM (inactive)
CC(=O)c1ccc(NC(=O)/C(Cc2ccccn2)=N/NC(=O)C[N+](C)(C)C)cc1 | > 100 µM (inactive) | > 100 µM (inactive) | > 100 µM (inactive) | > 100 | > 100 µM (inactive) | > 100 µM (inactive) | > 100 µM (inactive) | > 100 µM (inactive) | > 100 µM (inactive) | > 100 µM (inactive) | > 100 µM (inactive) | > 100 µM (inactive) | > 100 µM (inactive) | > 100 µM (inactive) | > 100 µM (inactive) | > 100 µM (inactive)
O=C(Cc1nc2ccccc2s1)Nc1cccc(C(F)(F)F)c1 | 21 µM (inactive) | 13.6 µM (inactive) | 22.2 µM (inactive) | 12.4 | 9.16 µM (inactive) | 6.89 µM (inactive) | 14.8 µM (inactive) | 18.5 µM (inactive) | 18.1 µM (inactive) | 15 µM (inactive) | 29.5 µM (inactive) | 19.2 µM (inactive) | – | 14.4 µM (inactive) | 18.2 µM (inactive) | 18.5 µM (inactive)
CCCCOCN/C(N)=N/C#N | > 100 µM (inactive) | > 100 µM (inactive) | > 100 µM (inactive) | 21.9 | 73.6 µM (inactive) | > 100 µM (inactive) | > 100 µM (inactive) | > 100 µM (inactive) | > 100 µM (inactive) | > 100 µM (inactive) | > 100 µM (inactive) | 18.2 µM (inactive) | > 100 µM (inactive) | > 100 µM (inactive) | > 100 µM (inactive) | > 100 µM (inactive)
NC(=O)C#CC#CC#CCO | 4.39 µM (inactive) | 1.34 µM (inactive) | 1.68 µM (inactive) | 1.8 | 2.04 µM (inactive) | 0.998 µM (active) | 2.12 µM (inactive) | 18.9 µM (inactive) | 1.81 µM (inactive) | 2.14 µM (inactive) | 12.8 µM (inactive) | 1.51 µM (inactive) | 2 µM (inactive) | 2.33 µM (inactive) | 2.09 µM (inactive) | 2.2 µM (inactive)
COC(=O)CCC(=O)C(C#N)c1ccc(Cl)cc1Cl (centres undefined) | > 100 µM (inactive) | > 100 µM (inactive) | > 100 µM (inactive) | > 100 | > 100 µM (inactive) | > 100 µM (inactive) | > 100 µM (inactive) | – | – | > 100 µM (inactive) | > 100 µM (inactive) | > 100 µM (inactive) | > 100 µM (inactive) | > 100 µM (inactive) | – | > 100 µM (inactive)
CCOC(=O)NC(=O)c1cn(CCCOC(=O)CCCCCCCCCCC(=O)OCCCn2cc(C(=O)NC(=O)OCC)c(=O)[nH]c2=O)c(=O)[nH]c1=O | > 100 µM (inactive) | > 100 µM (inactive) | > 100 µM (inactive) | – | > 100 µM (inactive) | > 100 µM (inactive) | > 100 µM (inactive) | > 100 µM (inactive) | > 100 µM (inactive) | > 100 µM (inactive) | 42.7 µM (inactive) | > 100 µM (inactive) | > 100 µM (inactive) | > 100 µM (inactive) | > 10 µM (inactive) | > 100 µM (inactive)
CC(C)OP(=O)(OC(C)C)/C(N)=N/Nc1ccc([N+](=O)[O-])cc1 | 76.2 µM (inactive) | 69.8 µM (inactive) | 25.4 µM (inactive) | > 100 | 77.6 µM (inactive) | 52.1 µM (inactive) | 63 µM (inactive) | > 100 µM (inactive) | > 100 µM (inactive) | > 100 µM (inactive) | – | > 100 µM (inactive) | > 100 µM (inactive) | 25.1 µM (inactive) | – | > 100 µM (inactive)
CCc1cccc(C(C)C)c1NC(=O)/C(=N\NC(N)=O)C(C(=O)OC)c1cnc2ccccc2n1 (centres undefined) | 24.8 µM (inactive) | 62.7 µM (inactive) | > 100 µM (inactive) | 39.2 | 37.2 µM (inactive) | 32.9 µM (inactive) | 24.8 µM (inactive) | > 100 µM (inactive) | 54.1 µM (inactive) | 55.8 µM (inactive) | > 100 µM (inactive) | 39.5 µM (inactive) | 40.2 µM (inactive) | 32.1 µM (inactive) | 50 µM (inactive) | 53.3 µM (inactive)
CN(C)/C=N\c1nc(=O)n(C2CCC(CO)O2)cc1F (centres undefined) | > 100 µM (inactive) | > 100 µM (inactive) | > 100 µM (inactive) | > 100 | > 100 µM (inactive) | > 100 µM (inactive) | > 100 µM (inactive) | > 100 µM (inactive) | > 100 µM (inactive) | > 100 µM (inactive) | > 100 µM (inactive) | > 100 µM (inactive) | > 100 µM (inactive) | > 100 µM (inactive) | > 100 µM (inactive) | > 100 µM (inactive)
O=C(/C=C(\O)C(=O)O)/C=C(\O)c1ccccc1 | > 4.65 µM (inactive) | > 4.65 µM (inactive) | > 4.65 µM (inactive) | > 4.65 | > 4.65 µM (inactive) | > 100 µM (inactive) | – | – | > 100 µM (inactive) | – | > 4.65 µM (inactive) | > 4.65 µM (inactive) | > 4.65 µM (inactive) | > 4.65 µM (inactive) | > 100 µM (inactive) | > 4.65 µM (inactive)
CNc1ccc([N+](=O)[O-])c2c(NCCCN(C)C)ccnc12 | > 100 µM (inactive) | > 100 µM (inactive) | > 100 µM (inactive) | > 100 | > 100 µM (inactive) | > 100 µM (inactive) | 99.1 µM (inactive) | > 100 µM (inactive) | > 100 µM (inactive) | > 100 µM (inactive) | > 100 µM (inactive) | > 100 µM (inactive) | > 100 µM (inactive) | > 100 µM (inactive) | – | > 100 µM (inactive)
COC(=O)C(C(=O)C(=O)Nc1ccc([N+](=O)[O-])cc1)c1nc2cc(C)c(C)cc2nc1O (centres undefined) | > 100 µM (inactive) | > 100 µM (inactive) | > 100 µM (inactive) | > 100 | > 100 µM (inactive) | > 100 µM (inactive) | > 100 µM (inactive) | > 100 µM (inactive) | – | > 100 µM (inactive) | > 100 µM (inactive) | > 100 µM (inactive) | > 100 µM (inactive) | > 100 µM (inactive) | > 100 µM (inactive) | –
CCCCCCCCCC1CC(=O)OC2=C1C(=O)CCC2 (centres undefined) | > 100 µM (inactive) | > 100 µM (inactive) | > 100 µM (inactive) | – | > 100 µM (inactive) | > 100 µM (inactive) | > 100 µM (inactive) | > 100 µM (inactive) | > 100 µM (inactive) | > 100 µM (inactive) | > 100 µM (inactive) | > 100 µM (inactive) | > 100 µM (inactive) | > 100 µM (inactive) | > 100 µM (inactive) | > 100 µM (inactive)
Clc1ccc(Cc2nc3ccccc3s2)c(Cl)c1 | 19.7 µM (inactive) | 17.5 µM (inactive) | 23.6 µM (inactive) | 16.3 | 14.8 µM (inactive) | 14.3 µM (inactive) | > 10 µM (inactive) | 19.3 µM (inactive) | 19.8 µM (inactive) | 18.3 µM (inactive) | 28.2 µM (inactive) | 21.8 µM (inactive) | – | 17.5 µM (inactive) | 20.9 µM (inactive) | 16.4 µM (inactive)
O=[N+]([O-])c1cccc(C(O)/C(=N/Nc2ccccc2)C2Nc3ccc([N+](=O)[O-])cc3N=C2O)c1 (centres undefined) | 41.2 µM (inactive) | 24.5 µM (inactive) | > 100 µM (inactive) | 14.4 | 30.5 µM (inactive) | 27.2 µM (inactive) | > 100 µM (inactive) | 49.3 µM (inactive) | > 100 µM (inactive) | > 100 µM (inactive) | > 100 µM (inactive) | 49.3 µM (inactive) | 88.1 µM (inactive) | > 100 µM (inactive) | > 100 µM (inactive) | > 100 µM (inactive)
O=C(c1ccccc1)c1ccc2cccc(O)c2n1 | 33 µM (inactive) | 37.5 µM (inactive) | 24.4 µM (inactive) | 23.6 | 9.23 µM (inactive) | 5.27 µM (inactive) | 22.6 µM (inactive) | 60.8 µM (inactive) | 23.6 µM (inactive) | 29.3 µM (inactive) | – | 13.5 µM (inactive) | 18.5 µM (inactive) | – | 16.4 µM (inactive) | 47.6 µM (inactive)
[N-]=[N+]=NC1C2CC3C4CC5CC3[C@H](C2)C(C5)C41 (some centres undefined) | > 100 µM (inactive) | > 100 µM (inactive) | > 100 µM (inactive) | – | > 100 µM (inactive) | > 100 µM (inactive) | > 100 µM (inactive) | > 100 µM (inactive) | > 100 µM (inactive) | > 100 µM (inactive) | > 100 µM (inactive) | > 100 µM (inactive) | > 100 µM (inactive) | > 100 µM (inactive) | > 100 µM (inactive) | > 100 µM (inactive)
